# Test system: isolated saphenous artery of rabbits
# Test: Vessel-relaxing action in vitro, phenylephrine-induced contractions of isolated saphenous artery rings
# Conditions: Oryctolagus cuniculus; concentration reducing phenylephrine-induced contraction of rabbit saphenous artery rings by 50% of control
# Procedure: The inhibition of the enzyme is investigated in an in vitro assay with recombinant Rho kinase II. The vessel-relaxing action is determined using phenylephrine-induced contractions of isolated rings of the saphenous artery of rabbits.
# Vessel-Relaxing Action In Vitro
# Individual 3-mm-wide rings of the isolated saphenous artery of rabbits are introduced into 5 ml organ baths with Krebs-Henseleit solution (37° C., gassed with carbogen). The vessel tone is monitored isometrically and registered. Contractions are induced by addition of […] of phenylephrine/ml, which is washed out again after 4 min. After a number of control cycles, the rings are preincubated with the substance to be examined, with the dosage being increased for each further cycle, and the subsequent contraction is compared to the intensity of the last control contraction.
row,IC50,SMILES
1,45 nM,"Nc1nc(Nc2ccc(Oc3ccnc4[nH]cc(Cl)c34)c(F)c2)cc(C(F)(F)F)n1 [Example 9, N^4-{4-[(3-Chloro-1H-pyrrolo[2,3-b]pyridin-4-yl)oxy]-3-fluorophenyl}-6-(trifluoromethyl)pyrimidine-2,4-diamine]"
2,67 nM,"Cc1c[nH]c2nccc(Oc3c(F)cc(Nc4cc(Cl)nc(N)n4)cc3F)c12 [Example 1, 6-Chloro-N^4-{3,5-difluoro-4-[(3-methyl-1H-pyrrolo[2,3-b]pyridin-4-yl)oxy]phenyl}pyrimidine-2,4-diamine]"
3,19 nM,"N#Cc1c[nH]c2nccc(Oc3ccc(Nc4cc(C(F)(F)F)nc(N)n4)cc3F)c12 [Example 18, 4-(4-{[2-Amino-6-(trifluoromethyl)pyrimidin-4-yl]amino}-2-fluorophenoxy)-1H-pyrrolo[2,3-b]pyridin-3-carbonitrile]"
